Results taken from patent US20250129103A1, “METHODS FOR TREATMENT OF CANCER” (Frontier Medicines Corporation, priority 2022, published 2025).

Tests used:
[1] = target: KRAS G12C (GMPPNP-loaded) and cRAF (Ras-binding domain) interaction (Homo sapiens (Human), UniProt P01116, C118S/C51S/C80L/G12C); assay: Inhibition of KRAS G12C and cRAF binding (AlphaScreen); settings: KRAS G12C loaded with GMPPNP, cRaf RBD, 2 hours preincubation; read-out: Raf-1 RBD K-Ras IC50
Outline: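 AlphaScreen readout (680 nm excitation, 570 nm emission) of RBD binding after a 60-90 min bead step at room temperature. This step follows 2 h compound exposure of GMPPNP-preloaded KRAS G12C in Hepes pH 7.4 buffer with MgCl2 and 10 μM GMPPNP.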

[2] = target: KRAS G12C (GMPPNP-loaded) and PI3Ka (Ras-binding domain) interaction (Homo sapiens (Human), UniProt P01116, C118S/C51S/C80L/G12C); assay: Inhibition of KRAS G12C and PI3Ka binding (AlphaScreen); settings: KRAS G12C loaded with GMPPNP, PI3Ka RBD, 2 hours preincubation; read-out: PI3K RBD K-Ras IC50
Method: The AlphaScreen technology was used to determine IC50S for compound inhibition of KRAS G12C (present as the Cys-light (C51S, C80L and C118S), truncated version comprising amino acids 1-169) and PI3Ka interaction. Compounds were diluted in 100% DMSO and each compound concentration was spotted at 200 nl/well onto low volume, white 384 well plates. The KRAS G12C contained a biotin-AviTag and the PI3Ka, as Ras-binding domain (amino acids 157-300, RBD), was His-tagged. KRAS G12C was preloaded with the GTP analogue Guanosine 5′-[β,γ-imido]triphosphate (GMPPNP). The KRAS G12C was diluted in 25 mM Hepes, pH 7.4, 150 mM NaCl, 5 mM MgCl2, 0.01% TritonX-100 and 10 μM GMPPNP and added at 10 ul/well to compound-spotted plates resulting in a DMSO concentration of 2%. Plates were incubated for 2 hours. A mixture of RBD and the AlphaScreen streptavidin donor and nickel chelate acceptor beads diluted in 25 mM Hepes, pH 7.4, 150 mM NaCl, 5 mM MgCl2, 0.01% TritonX-100 and 2% DMSO was then added at 10 ul/well and incubated for 60-90 minutes before the samples were read for emission at 570 nm after excitation of the donor beads at 680 nm. All incubations were performed at room temperature. The final top compound concentration was 50 μM with 1:3 titrations for 10-point dose response curves. Final assay conditions were 1.5 nM KRAS G12C, 100 nM RBD, 1.25 ug/ml of AlphaScreen donor beads and 10 μg/ml AlphaLISA acceptor beads. IC50s were determined using nonlinear regression fit of [inhibitor] vs. response (4 parameters). […]

KRAS G12C (GMPPNP-loaded) and cRAF (Ras-binding domain) interaction, sequence (P01116 other isoform, or with tags, fused parts or gaps G12C/C51S/C80L/C118S): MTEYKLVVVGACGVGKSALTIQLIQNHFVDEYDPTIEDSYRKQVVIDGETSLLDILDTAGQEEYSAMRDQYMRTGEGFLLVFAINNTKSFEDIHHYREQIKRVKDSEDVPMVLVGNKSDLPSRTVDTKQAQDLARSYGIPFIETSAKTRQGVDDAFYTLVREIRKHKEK
KRAS G12C (GMPPNP-loaded) and PI3Ka (Ras-binding domain) interaction, sequence (P01116 other isoform, or with tags, fused parts or gaps G12C/C51S/C80L/C118S): as above

Structure (SMILES) | IC50 [1] | IC50 [2]
N#CC[C@H]1CN(c2nc(OC[C@@]34CCCN3C[C@H](F)C4)nc3c(F)c(-c4cccc5cccc(F)c45)ncc23)CCN1C(=O)/C=C/CN1C[C@H]2C[C@@H]1CO2 [Compound 220] | < 10 nM | < 10 nM
CC(F)(F)c1noc(/C=C/C(=O)N2CCN(c3nc(OCC45CCCN4CCC5)nc4c(F)c(-c5cccc6cccc(Cl)c56)ncc34)C[C@@H]2CC#N)n1 [Example 13, (S,E)-2-(4-(7-(8-chloronaphthalen-1-yl)-8-fluoro-2-((tetrahydro-1H-pyrrolizin-7a(5H)-yl)methoxy)pyrido[4,3-d]pyrimidin-4-yl)-1-(3-(3-(1,1-difluoroethyl)-1,2,4-oxadiazol-5-yl)acryloyl)piperazin-2-yl)acetonitrile] | 10 to 100 nM | 10 to 100 nM
Cc1nccc(/C=C/C(=O)N2CCN(c3nc(OC[C@@]45CCCN4C[C@H](F)C5)nc4c(F)c(-c5cccc6ccc(F)c(F)c56)ncc34)C[C@@H]2CC#N)n1 [Compound 211] | < 10 nM | < 10 nM
C[C@H]1CN(C/C=C/C(=O)N2CCN(c3nc(OC[C@@]45CCCN4C[C@H](F)C5)nc4c(F)c(-c5cccc6ccc(F)c(Cl)c56)ncc34)C[C@@H]2CC#N)C[C@H](C)O1 [Example 75, 2-((S)-4-(7-(8-chloro-7-fluoronaphthalen-1-yl)-8-fluoro-2-(((2R,7aS)-2-fluorotetrahydro-1H-pyrrolizin-7a(5H)-yl)methoxy)pyrido[4,3-d]pyrimidin-4-yl)-1-((E)-4-((2S,6S)-2,6-dimethylmorpholino)but-2-enoyl)piperazin-2-yl)acetonitrile] | < 10 nM | < 10 nM
N#CC[C@H]1CN(c2nc(OC[C@@]34CCCN3C[C@H](F)C4)nc3c(F)c(-c4cccc(Cl)c4C4CC4)ncc23)CCN1C(=O)/C=C/CN1CC[C@H](F)C1 [Compound 283] | < 10 nM | < 10 nM
Cc1cc(N)nc(C2Cc3nc(OC[C@@]45CCCN4C[C@H](F)C5)nc(N4CCN(C(=O)/C=C/c5nc(C(C)C)no5)[C@@H](CC#N)C4)c3CC2C)c1C(F)(F)F (mixture of isomers) [Example 66, 2-((2S)-4-(7-(6-amino-4-methyl-3-(trifluoromethyl)pyridin-2-yl)-2-(((2R,7aS)-2-fluorotetrahydro-1H-pyrrolizin-7a(5H)-yl)methoxy)-6-methyl-5,6,7,8-tetrahydroquinazolin-4-yl)-1-((E)-3-(3-isopropyl-1,2,4-oxadiazol-5-yl)acryloyl)piperazin-2-yl)acetonitrile] | 10 to 100 nM | 10 to 100 nM
C[C@@H]1CN(C/C=C/C(=O)N2CCN(c3nc(OC[C@@]45CCCN4C[C@H](F)C5)nc4c(F)c(-c5cccc6ccc(F)c(Cl)c56)ncc34)C[C@@H]2CC#N)C[C@H](C)O1 [Example 73, 2-((S)-4-(7-(8-chloro-7-fluoronaphthalen-1-yl)-8-fluoro-2-(((2R,7aS)-2-fluorotetrahydro-1H-pyrrolizin-7a(5H)-yl)methoxy)pyrido[4,3-d]pyrimidin-4-yl)-1-((E)-4-((2S,6R)-2,6-dimethylmorpholino)but-2-enoyl)piperazin-2-yl)acetonitrile] | < 10 nM | < 10 nM
C[C@@H]1CN(C/C=C/C(=O)N2CCN(c3nc(OC[C@@]45CCCN4C[C@H](F)C5)nc4c(F)c(-c5cccc6ccc(F)c(Cl)c56)ncc34)C[C@@H]2CC#N)C[C@@H](C)O1 [Example 74, 2-((S)-4-(7-(8-chloro-7-fluoronaphthalen-1-yl)-8-fluoro-2-(((2R,7aS)-2-fluorotetrahydro-1H-pyrrolizin-7a(5H)-yl)methoxy)pyrido[4,3-d]pyrimidin-4-yl)-1-((E)-4-((2R,6R)-2,6-dimethylmorpholino)but-2-enoyl)piperazin-2-yl)acetonitrile] | < 10 nM | < 10 nM
N#CC[C@H]1CN(c2nc(OC[C@@]34CCCN3C[C@H](F)C4)nc3c(F)c(-c4cccc5cccc(F)c45)ncc23)CCN1C(=O)/C=C/CN1C[C@@H]2C[C@H]1CO2 [Compound 219] | < 10 nM | < 10 nM
Cc1noc(/C=C/C(=O)N2CCN(c3nc(OC[C@@]45CCCN4C[C@H](F)C5)nc4c3CCN(c3cccc5ccc(F)c(Cl)c35)C4)C[C@@H]2CC#N)n1 [Example 3, 2-((S)-4-(7-(8-chloro-7-fluoronaphthalen-1-yl)-2-(((2R,7aS)-2-fluorotetrahydro-1H-pyrrolizin-7a(5H)-yl)methoxy)-5,6,7,8-tetrahydropyrido[3,4-d]pyrimidin-4-yl)-1-((E)-3-(3-methyl-1,2,4-oxadiazol-5-yl)acryloyl)piperazin-2-yl)acetonitrile] | 10 to 100 nM | < 10 nM
Cc1nccc(/C=C/C(=O)N2CCN(c3nc(OC[C@@]45CCCN4C[C@H](F)C5)nc4c(F)c(-c5cccc(Cl)c5C5CC5)ncc34)C[C@@H]2CC#N)n1 [Compound 104, 2-((S)-4-(7-(3-chloro-2-cyclopropylphenyl)-8-fluoro-2-(((2R,7aS)-2-fluorotetrahydro-1H-pyrrolizin-7a(5H)-yl)methoxy)pyrido[4,3-d]pyrimidin-4-yl)-1-((E)-3-(2-methylpyrimidin-4-yl)acryloyl)piperazin-2-yl)acetonitrile] | < 10 nM | < 10 nM
Cc1cc(/C=C/C(=O)N2CCN(c3nc(OC[C@@]45CCCN4C[C@H](F)C5)nc4c(F)c(-c5cccc6cccc(Cl)c56)ncc34)C[C@@H]2CC#N)nc(C)n1 [Example 69, 2-((S)-4-(7-(8-chloronaphthalen-1-yl)-8-fluoro-2-(((2R,7aS)-2-fluorotetrahydro-1H-pyrrolizin-7a(5H)-yl)methoxy)pyrido[4,3-d]pyrimidin-4-yl)-1-((E)-3-(2,6-dimethylpyrimidin-4-yl)acryloyl)piperazin-2-yl)acetonitrile] | < 10 nM | < 10 nM
CC1(C)CN(C/C=C/C(=O)N2CCN(c3nc(OCC45CCCN4CCC5)nc4c3CCN(c3cccc5cccc(Cl)c35)C4)C[C@@H]2CC#N)CCO1 [Compound 165] | < 10 nM | < 10 nM
CCc1c(F)ccc2cccc(-c3ncc4c(N5CCN(C(=O)/C=C/c6ccnc(C)n6)[C@@H](CC#N)C5)nc(OC[C@@]56CCCN5C[C@H](F)C6)nc4c3F)c12 [Compound 227] | < 10 nM | < 10 nM
N#CC[C@H]1CN(c2nc(OCC34CCCN3CCC4)nc3c2CCN(c2cccc4cccc(Cl)c24)C3)CCN1C(=O)/C=C/CN1CCOCC1 [Example 11, (S,E)-2-(4-(7-(8-chloronaphthalen-1-yl)-2-((hexahydro-1H-pyrrolizin-7a-yl)methoxy)-5,6,7,8-tetrahydropyrido[3,4-d]pyrimidin-4-yl)-1-(4-morpholinobut-2-enoyl)piperazin-2-yl)acetonitrile] | < 10 nM | 10 to 100 nM
CCc1nccc(/C=C/C(=O)N2CCN(c3nc(OC[C@@]45CCCN4C[C@H](F)C5)nc4c(F)c(-c5cccc6cccc(Cl)c56)ncc34)C[C@@H]2CC#N)n1 [Compound 150] | < 10 nM | < 10 nM
N#CC[C@H]1CN(c2nc(OC[C@@]34CCCN3C[C@H](F)C4)nc3c(F)c(-c4cccc5cccc(Cl)c45)ncc23)CCN1C(=O)/C=C/CN1C[C@@H]2C[C@H]1CO2 [Compound 180] | < 10 nM | < 10 nM
N#CC[C@H]1CN(c2nc(OCC34CCCN3CCC4)nc3c2CCN(c2cccc4cccc(Cl)c24)C3)CCN1C(=O)/C=C/CN1CCC(F)(F)CC1 [Compound 159] | < 10 nM | < 10 nM
N#CC[C@H]1CN(c2nc(OC[C@@]34CCCN3C[C@H](F)C4)nc3c(F)c(-c4cccc5cccc(Cl)c45)ncc23)CCN1C(=O)/C=C/CN1C[C@H]2C[C@@H]1CO2 [Compound 181] | < 10 nM | < 10 nM
N#CC[C@H]1CN(c2nc(OC[C@@]34CCCN3C[C@H](F)C4)nc3c(F)c(-c4cccc(Cl)c4C4CC4)ncc23)CCN1C(=O)/C=C/CN1CCOCC1 [Compound 243] | < 10 nM | < 10 nM
N#CC[C@H]1CN(c2nc(OC[C@@]34CCCN3C[C@H](F)C4)nc3c(F)c(-c4cccc5ccc(F)c(Cl)c45)ncc23)CCN1C(=O)/C=C/CN1C2COCC1C2 [Example 76, 2-((2S)-1-((E)-4-(3-oxa-6-azabicyclo[3.1.1]heptan-6-yl)but-2-enoyl)-4-(7-(8-chloro-7-fluoronaphthalen-1-yl)-8-fluoro-2-(((2R,7aS)-2-fluorotetrahydro-1H-pyrrolizin-7a(5H)-yl)methoxy)pyrido[4,3-d]pyrimidin-4-yl)piperazin-2-yl)acetonitrile] | < 10 nM | < 10 nM
